Here are results for four compounds from patent publication US20240009223A1, “6-THIO-2'-DEOXYGUANOSINE (6-THIO-DG) RESULTS IN TELOMERASE DEPENDENT TELOMERE DYSFUNCTION AND CELL DEATH IN VARIOUS MODELS OF THERAPY-RESISTANT CANCER CELLS” (The Board of Regents of The University of Texas System, priority 2016, published 2024).

The test system of experiment [1] is panel of 12 cancer cell lines of 9 different histological origins. Kind of experiment: Long-term cell growth assay (crystal violet), 12 non-melanoma cancer cell lines. Conditions: dose of 25 μM; 9-12 days. It is filed as cell-based. Here is the method: FIGS. 1A-1B show long-term cell growth assay of 12 non-melanoma cancer cell lines (FIG. 1A) and 12 BRAF-mutant melanoma cell lines (FIG. 1B) that were treated with 6-thio-dG (6dG) or BIBR 1532 (BIBR) at indicated doses for 9 to 12 days.
Treatment of a Variety of Cancer Cell Lines with Telomerase-directed 6-thio-dG Impairs Cell Viability. […] To further confirm the inhibitory effect of 6-thio-dG, a panel of 12 cancer cell lines of 9 different histological origins was treated with 6-thio-dG for 9-12 days. As the control for 6-thio-dG, a known telomerase inhibitor, BIBR 1532, was also included. In most cases, these cancer cell lines were sensitive to 6-thio-dG administered at a dose of 2.5 μM and higher (FIG. 1A).

The next experiment relates to WO-24-2. Kind of experiment: Relative cell viability, patient-derived culture WO-24-2. In kind it is cell-based, human. The settings on record: carboplatin at indicated doses, 5 days. The text has this:
A short-term primary culture, WO-24-2 from a therapy-resistant human ovarian cancer, was also established. The WO-24-2 tumor was resected from a patient with high grade serous ovarian cancer who underwent an interval debulking surgery after receiving neoadjuvant chemotherapy with platinum/taxane and subsequently progressed on platinum chemotherapy. Immunofluorescence staining of PAX8 and cytokeratin 7 confirmed that these were indeed human ovarian cancer cells (FIG. 14K) (George et al., 2017).

The subject of a further experiment is PEO1. In words: Relative cell viability, PEO1. In kind it is cell-based, human. The settings on record: 5 days. Here is the method: (§1) Additionally, the efficacy of 6-thio-dG was tested using two human ovarian cancer cell lines, PEO4 and PEO1-CR. PEO4 is a derivative line of BRCA1/2-mutant PEO1 that regains homologous recombination by BRCA reversion mutation. […] Importantly, all three cell lines were sensitive to 6-thio-dG after the 5-day treatment (FIGS. 14H-14J).

The subject of the next experiment is PEO4. Kind of experiment: Relative cell viability, PEO4. It is filed as cell-based, human. The settings on record: 5 days. Here is the method: as §1
The subject of the next experiment is PEO1-CR. In words: Relative cell viability, PEO1-CR. It is filed as cell-based, human. Conditions: 5 days. Here is the method:
as §1

For experiment [2], the system named is metastatic melanoma (BRAF mutation). In words: Targeted therapy patients' clinical response. The settings on record: one patient per row; vemurafenib 1920 mg daily. It is filed as in vivo, human. Here is the method:
(§2) Ethics Statement. All clinical data and patient samples were collected following approval by the Massachusetts General Hospital institutional review board and the Hospital of the University of Pennsylvania institutional review board. In all cases informed consent was obtained. All animal studies were conducted in accordance with the Guide for the Care and Use of Laboratory Animals of the NIH. Mice were maintained according to the guidelines of the Wistar Institutional Animal Care and Use Committee (IACUC), and study designs were approved by the Wistar IACUC.
In addition to treatment-naïve human melanoma, paired pre-, on- and post-treatment tumor biopsies derived from patients with metastatic melanoma who were treated with targeted therapies or immune checkpoint blockade therapies were analyzed.

The test system of another experiment is metastatic melanoma. Kind of experiment: Immune checkpoint therapy patient's clinical response. In kind it is in vivo, human. Conditions: patient #39, previously progressed on other therapies. Here is the method:
as §2
RNA-seq of 31 paired pre-, on- and/or post-treatment tumor biopsies derived from 12 patients who were treated with various immune checkpoint blockade therapies were carried out. […] The ssGSEA identified that “packaging of telomere ends” and “telomere maintenance” were highly enriched in 7 out 12 patients' on- or post-treatment tumor biopsies (FIG. 11). […] Prior to pembrolizumab, this patient progressed on vemurafenib, IL-2, ipilimumab, and dabrafenib plus trametinib. It was observed that “telomere maintenance” and “packaging of telomere ends” were highly enriched in this patient's on-treatment tumor biopsy compared to the paired pre-treatment tumor biopsy (FIG. 9F and Table 8). 00449194) 96

Values joined by “and” are separate entries in the source; they are usually repeats but may differ in a detail not shown here. Equal values may be shown once.

Consider `C/C(=C\C(=O)Nc1ccccc1C(=O)O)c1ccc2ccccc2c1` [BIBR 1532, reference compound], for which the anti-proliferative activity entry in experiment [1] was “observed in a subset of 12 cancer cell lines”.
`N.N.O=C([O-])C1(C(=O)[O-])CCC1.[Pt+2]` [carboplatin, reference compound]: the “sensitivity (relative cell viability)” value in the experiment on WO-24-2 is recorded as “resistant”; with PEO1, “sensitive”; in the experiment on PEO4, “intrinsically resistant”; with PEO1-CR, “acquired resistance”.
As to `CCCS(=O)(=O)Nc1ccc(F)c(C(=O)c2c[nH]c3ncc(-c4ccc(Cl)cc4)cc23)c1F` [vemurafenib], in experiment [2], the “Response (value in parentheses)” value is −16.5% and −51.2% and −53% and −24.9% and −81.5% and −60.5% and −56% and −27%; the “Time To Progression” value was 6 months and 5 months and 2 months and 4.3 months and PD at 9 months and 13.4 months and 8.5 months and 3.5 months and 6.5 months.
As to pembrolizumab: anti-PD-1 drug, the best response result in the experiment with metastatic melanoma is on record as “progressive disease”.
